Measurements from publication PMC11355573, “A New Renieramycin T Right-Half Analog as a Small Molecule Degrader of STAT3” (Marine Drugs, 2024).
Where two headings read alike, the source gives them in different places.

Tests used:
Format in all cases: cell-based
BEAS-2B cells = assay: MTT assay in non-tumorigenic bronchial epithelial cells (selectivity); conditions: Homo sapiens, 24 h, read-out: BEAS-2B IC50 ± SD
Experimental: NSCLCs H292 and H460 were treated with various concentrations of derivatives of the RT right-half analog for 24 h. […] However, the IC50 values for DH_17, DH_20, DH_23, and DH_26 in H460 cells were greater than 100 μM. TM-(−)-18 was identified as a potent compound in a previous study. The structure of TM-(−)-18 was present in Figure 1A. […] To assess the selectivity of DH_28, DH_30, DH_31, and TM-(−)-18 in lung cancer cells, non-tumorigenic epithelial cell lines derived from human bronchial epithelial cells (BEAS-2B) were treated with DH_28, DH_30, DH_31, and TM-(−)-18 at various concentrations for 24 h.
Figure 2 The effect of RT right-half analogs on cytotoxicity in NSCLC and human normal lung epithelial (BEAS-2B) cell lines and apoptotic cell death in NSCLC cells. (A) NSCLC H292 and H460 cells were treated with derivatives of RT right-half analogs for 24 h and analyzed using MTT assay to assess cytotoxicity. (B) IC50 values for H292 and H460 cell lines were calculated. (C) BEAS-2B cells were treated with DH_28, DH_30, DH_31, and TM-(−)-18 for 24 h. The cytotoxic effects were evaluated using an MTT assay, and the IC50 values for BEAS-2B cells were determined. (D) H292 and H460 cells were seeded and treated with 0–10 μM of DH_28, DH_30, and DH_31 for 24 h. Hoechst 33342 and PI were used to stain the cell nuclei. Images were obtained under a fluorescence microscope. (E) The percentages of cell death were calculated based on the stained images in H292 and H460 cells. […] TEXT PRINTED IN THE PICTURE: (B) DH_17: IC50 ± SD (μM) H292: 20.50 ± 3.69; IC50 ± SD (μM) H460: > 100 | (B) DH_20: IC50 ± SD (μM) H292: 21.46 ± 3.77; IC50 ± SD (μM) H460: > 100 | (B) DH_23: IC50 ± SD (μM) H292: 17.50 ± 3.08; IC50 ± SD (μM) H460: > 100 | (B) DH_26: IC50 ± SD (μM) H292: 7.18 ± 2.39; IC50 ± SD (μM) H460: > 100 | (B) DH_28: IC50 ± SD (μM) H292: 9.56 ± 1.87; IC50 ± SD (μM) H460: 11.48 ± 1.87 | (B) DH_30: IC50 ± SD (μM) H292: 7.80 ± 2.30; IC50 ± SD (μM) H460: 4.51 ± 0.78 | (B) DH_31: IC50 ± SD (μM) H292: 5.54 ± 1.04; IC50 ± SD (μM) H460: 2.90 ± 0.58 | (B) TM-(–)-18: IC50 ± SD (μM) H292: > 100; IC50 ± SD (μM) H460: 7.89 ± 1.27 | (C) DH_28: BEAS-2B IC50 ± SD (μM): 16.46 ± 2.11 | (C) DH_30: BEAS-2B IC50 ± SD (μM): 5.50 ± 1.70 | (C) DH_31: BEAS-2B IC50 ± SD (μM): 6.51 ± 1.40 | (C) TM-(–)-18: BEAS-2B IC50 ± SD (μM): 7.25 ± 1.25 DOUBTS OF THE COPYIST ABOUT THIS PICTURE: Panel C, DH_28, IC50: small print, 16.46 ± 2.11 is the best reading; 6 could be 8 / Panel C, DH_30, IC50: small print, 5.50 ± 1.70 is the best reading; 5 could be 6 / Panel C, DH_31, IC50: small print, 6.51 ± 1.40 is the best reading; 6 could be 8 or 5 / Panel C, TM-(–)-18, IC50: small print, 7.25 ± 1.25 is the best reading

H460 cells = conditions: 24 h
Experimental: Apoptosis is a crucial mechanism of cell death induced by anticancer drugs. We further analyzed the apoptosis induction effect of the potent small molecules, namely DH_28, DH_30, and DH_31. Nuclear morphology detected by the staining with nucleus-specific fluorescence dye Hoechst 33342 and cell-impermeable PI for necrotic detection was performed. Morphologic changes by means of condensed and/or fragmented nuclei were observed after 24 h of treatment (Figure 2D). […] Therefore, DH_31 was selected for further experiments.
Figure 2 The effect of RT right-half analogs on cytotoxicity in NSCLC and human normal lung epithelial (BEAS-2B) cell lines and apoptotic cell death in NSCLC cells. (A) NSCLC H292 and H460 cells were treated with derivatives of RT right-half analogs for 24 h and analyzed using MTT assay to assess cytotoxicity. (B) IC50 values for H292 and H460 cell lines were calculated. (C) BEAS-2B cells were treated with DH_28, DH_30, DH_31, and TM-(−)-18 for 24 h. The cytotoxic effects were evaluated using an MTT assay, and the IC50 values for BEAS-2B cells were determined. (D) H292 and H460 cells were seeded and treated with 0–10 μM of DH_28, DH_30, and DH_31 for 24 h. Hoechst 33342 and PI were used to stain the cell nuclei. Images were obtained under a fluorescence microscope. (E) The percentages of cell death were calculated based on the stained images in H292 and H460 cells. Data represent the mean ± SD (n = 3). *, **, and *** indicate a statistically significant difference between the treated and the untreated cells at p < 0.05, p < 0.01, and p < 0.001, respectively. TEXT PRINTED IN THE PICTURE: (B) DH_17: IC50 ± SD (μM) H292: 20.50 ± 3.69; IC50 ± SD (μM) H460: > 100 | (B) DH_20: IC50 ± SD (μM) H292: 21.46 ± 3.77; IC50 ± SD (μM) H460: > 100 | (B) DH_23: IC50 ± SD (μM) H292: 17.50 ± 3.08; IC50 ± SD (μM) H460: > 100 | (B) DH_26: IC50 ± SD (μM) H292: 7.18 ± 2.39; IC50 ± SD (μM) H460: > 100 | (B) DH_28: IC50 ± SD (μM) H292: 9.56 ± 1.87; IC50 ± SD (μM) H460: 11.48 ± 1.87 | (B) DH_30: IC50 ± SD (μM) H292: 7.80 ± 2.30; IC50 ± SD (μM) H460: 4.51 ± 0.78 | (B) DH_31: IC50 ± SD (μM) H292: 5.54 ± 1.04; IC50 ± SD (μM) H460: 2.90 ± 0.58 | (B) TM-(–)-18: IC50 ± SD (μM) H292: > 100; IC50 ± SD (μM) H460: 7.89 ± 1.27 | (C) DH_28: BEAS-2B IC50 ± SD (μM): 16.46 ± 2.11 | (C) DH_30: BEAS-2B IC50 ± SD (μM): 5.50 ± 1.70 | (C) DH_31: BEAS-2B IC50 ± SD (μM): 6.51 ± 1.40 | (C) TM-(–)-18: BEAS-2B IC50 ± SD (μM): 7.25 ± 1.25 DOUBTS OF THE COPYIST ABOUT THIS PICTURE: Panel C, DH_28, IC50: small print, 16.46 ± 2.11 is the best reading; 6 could be 8 / Panel C, DH_30, IC50: small print, 5.50 ± 1.70 is the best reading; 5 could be 6 / Panel C, DH_31, IC50: small print, 6.51 ± 1.40 is the best reading; 6 could be 8 or 5 / Panel C, TM-(–)-18, IC50: small print, 7.25 ± 1.25 is the best reading

STAT3 = biological target: T1, STAT3 (Homo sapiens, UniProt P40763); assay: STAT3 proteasomal degradation, Western blot with or without MG132; conditions: H460, 1 and 2.5 µM, 6 h, without MG132 (p < 0.05)
T1 construct: endogenous in cells; host or cells: NCI-H460 (ATCC HTB-177)
T1 sequence (P40763 whole entry): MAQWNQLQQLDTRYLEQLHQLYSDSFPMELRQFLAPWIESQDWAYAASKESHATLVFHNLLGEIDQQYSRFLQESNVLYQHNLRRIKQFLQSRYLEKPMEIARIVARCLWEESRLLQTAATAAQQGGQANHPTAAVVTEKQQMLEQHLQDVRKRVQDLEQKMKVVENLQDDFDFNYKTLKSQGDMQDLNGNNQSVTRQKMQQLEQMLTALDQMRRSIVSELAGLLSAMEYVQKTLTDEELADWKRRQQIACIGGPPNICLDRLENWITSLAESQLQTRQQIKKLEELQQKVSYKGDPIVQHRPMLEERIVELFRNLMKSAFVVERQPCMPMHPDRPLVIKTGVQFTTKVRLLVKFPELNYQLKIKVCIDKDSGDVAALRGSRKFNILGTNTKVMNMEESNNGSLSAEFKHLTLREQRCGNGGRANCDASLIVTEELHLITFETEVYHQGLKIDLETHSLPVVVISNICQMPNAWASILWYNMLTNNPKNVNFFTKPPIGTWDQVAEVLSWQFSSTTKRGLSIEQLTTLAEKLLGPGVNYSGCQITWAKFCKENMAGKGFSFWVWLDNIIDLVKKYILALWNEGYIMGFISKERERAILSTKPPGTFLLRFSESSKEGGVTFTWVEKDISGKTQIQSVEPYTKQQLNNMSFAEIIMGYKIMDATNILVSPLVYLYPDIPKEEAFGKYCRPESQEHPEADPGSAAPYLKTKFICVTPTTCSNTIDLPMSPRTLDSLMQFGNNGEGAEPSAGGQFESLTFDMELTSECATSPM
Experimental: (§1) To explore whether the reduction in total STAT3 protein after DH_31 treatments (as shown in Figure 5B–E) occurs at the mRNA or protein levels, we first investigated mRNA levels using Real-time qPCR. […] To evaluate whether DH_31 affects STAT3 stability, pretreatment with MG132, a potent selective proteasome inhibitor, was performed. H460 cells were pretreated with or without MG132 (10 μM) for 1 h and then cells were either treated with DH_31 for 6 h or left untreated. […] The proteasome can recognize and degrade protein targets that are conjugated by single or poly-ubiquitin molecules. To investigate the ubiquitination level of STAT3 with DH_31 treatments, the ubiquitination level was evaluated using immunoprecipitation and Western blot analysis of the STAT3–ubiquitin complex in the lung cancer cells treated with DH_31 and in untreated cells.
Immunoprecipitation assay was performed to investigate ubiquitin–proteasomal degradation, shedding light on the regulatory mechanisms involved. H460 cells (4.0 × 10^5 cells per well) were seeded in 6-well plates. Following overnight incubation, the cells were pretreated with 10 μM of a proteasome inhibitor, MG132, for 1 h to prevent proteasomal degradation, and then were treated with different concentrations of DH_31 (0–2.5 μM) for 6 h. After treatment, the cells were lysed as described above. Immunoprecipitation was carried out using the Dynabeads™ Protein G Immunoprecipitation kit, following the manufacturers’ protocols. The magnetic beads were coated with the rabbit anti-STAT3, then incubated with whole-cell lysate and mixed gently overnight at 4 °C. After washing, the supernatant containing the antibody–antigen complex was used to perform Western blot analysis to detect the ubiquitinated STAT3 protein.

STAT3–ubiquitin complex = biological target: T2, STAT3–ubiquitin complex (Homo sapiens, UniProt P40763); assay: Immunoprecipitation and Western blot of STAT3–ubiquitin complex; conditions: H460, 2.5 µM, 6 h, MG132 10 µM pretreatment, vs untreated cells
T2 construct: endogenous in cells; host or cells: NCI-H460 (ATCC HTB-177)
T2 sequence (P40763 2-770 limits assumed, one chain of several): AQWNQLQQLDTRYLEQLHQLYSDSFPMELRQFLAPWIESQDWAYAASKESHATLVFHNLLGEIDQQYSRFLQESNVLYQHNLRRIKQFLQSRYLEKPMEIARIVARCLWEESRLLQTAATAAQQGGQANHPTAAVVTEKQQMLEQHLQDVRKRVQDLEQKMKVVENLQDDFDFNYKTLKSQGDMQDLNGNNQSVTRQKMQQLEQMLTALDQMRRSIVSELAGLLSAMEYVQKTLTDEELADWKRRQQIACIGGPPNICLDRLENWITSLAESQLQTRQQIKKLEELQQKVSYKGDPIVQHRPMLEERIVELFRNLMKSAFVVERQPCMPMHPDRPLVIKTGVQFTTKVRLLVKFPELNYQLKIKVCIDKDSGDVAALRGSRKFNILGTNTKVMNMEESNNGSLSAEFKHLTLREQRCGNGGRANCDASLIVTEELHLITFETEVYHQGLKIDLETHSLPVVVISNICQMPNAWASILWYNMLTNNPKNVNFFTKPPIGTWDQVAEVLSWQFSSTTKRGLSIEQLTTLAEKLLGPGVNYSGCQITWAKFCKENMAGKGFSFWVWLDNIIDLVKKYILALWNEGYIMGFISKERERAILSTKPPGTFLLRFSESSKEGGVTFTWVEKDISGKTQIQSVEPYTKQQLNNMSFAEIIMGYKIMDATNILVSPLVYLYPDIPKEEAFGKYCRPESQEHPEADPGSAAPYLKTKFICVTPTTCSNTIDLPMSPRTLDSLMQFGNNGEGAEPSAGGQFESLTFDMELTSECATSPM
Experimental: as §1
Immunoprecipitation assay was performed to investigate ubiquitin–proteasomal degradation, shedding light on the regulatory mechanisms involved. H460 cells (4.0 × 10^5 cells per well) were seeded in 6-well plates. Following overnight incubation, the cells were pretreated with 10 μM of a proteasome inhibitor, MG132, for 1 h to prevent proteasomal degradation, and then were treated with different concentrations of DH_31 (0–2.5 μM) for 6 h. After treatment, the cells were lysed as described above. […]

Compound: COc1c(C)cc2c(c1O)[C@@H]1CN(Cc3ccc4ccccc4c3)[C@@H](C#N)[C@H](C2)N1C [DH_31, (1R,4R,5S)-10-hydroxy-9-methoxy-8,11-dimethyl-3-(naphthalen-2-ylmethyl)-1,2,3,4,5,6-hexahydro-1,5-epiminobenzo[d]azocine-4-carbonitrile]
- IC50 (BEAS-2B cells): 6.51 ± 1.4 µM
- necrosis (H460 cells; H460, 1 µM): did not cause significant necrosis
- apoptotic cell death (H460 cells; H460, 10 µM): significant apoptotic cell death
- necrosis (H460 cells; H460, 10 µM): did not cause significant necrosis
- STAT3 protein levels (Western blot) (STAT3): significantly reduced
- STAT3–ubiquitin formation (STAT3–ubiquitin complex): significantly enhanced
